Values of other authors, collected in patent US20230203007A1, “PYRIDINYLACETAMIDE DERIVATIVES AS SODIUM CHANNEL ACTIVATORS” (priority 2021, published 2023).

Assays:
Nav1.1 = target: T1, Nav1.1 (Homo sapiens, UniProt P35498); conditions: Nav1.1-expressing HEK cells
T1 construct: host or cells: HEK cells

Nav1.5 = Nav1.5 (Homo sapiens, UniProt Q14524); conditions: relative to Nav1.1 activation
Nav1.2 = Nav1.2 (Homo sapiens, UniProt Q99250); conditions: relative to Nav1.1 activation
Chain of Nav1.2 (Q99250 whole entry): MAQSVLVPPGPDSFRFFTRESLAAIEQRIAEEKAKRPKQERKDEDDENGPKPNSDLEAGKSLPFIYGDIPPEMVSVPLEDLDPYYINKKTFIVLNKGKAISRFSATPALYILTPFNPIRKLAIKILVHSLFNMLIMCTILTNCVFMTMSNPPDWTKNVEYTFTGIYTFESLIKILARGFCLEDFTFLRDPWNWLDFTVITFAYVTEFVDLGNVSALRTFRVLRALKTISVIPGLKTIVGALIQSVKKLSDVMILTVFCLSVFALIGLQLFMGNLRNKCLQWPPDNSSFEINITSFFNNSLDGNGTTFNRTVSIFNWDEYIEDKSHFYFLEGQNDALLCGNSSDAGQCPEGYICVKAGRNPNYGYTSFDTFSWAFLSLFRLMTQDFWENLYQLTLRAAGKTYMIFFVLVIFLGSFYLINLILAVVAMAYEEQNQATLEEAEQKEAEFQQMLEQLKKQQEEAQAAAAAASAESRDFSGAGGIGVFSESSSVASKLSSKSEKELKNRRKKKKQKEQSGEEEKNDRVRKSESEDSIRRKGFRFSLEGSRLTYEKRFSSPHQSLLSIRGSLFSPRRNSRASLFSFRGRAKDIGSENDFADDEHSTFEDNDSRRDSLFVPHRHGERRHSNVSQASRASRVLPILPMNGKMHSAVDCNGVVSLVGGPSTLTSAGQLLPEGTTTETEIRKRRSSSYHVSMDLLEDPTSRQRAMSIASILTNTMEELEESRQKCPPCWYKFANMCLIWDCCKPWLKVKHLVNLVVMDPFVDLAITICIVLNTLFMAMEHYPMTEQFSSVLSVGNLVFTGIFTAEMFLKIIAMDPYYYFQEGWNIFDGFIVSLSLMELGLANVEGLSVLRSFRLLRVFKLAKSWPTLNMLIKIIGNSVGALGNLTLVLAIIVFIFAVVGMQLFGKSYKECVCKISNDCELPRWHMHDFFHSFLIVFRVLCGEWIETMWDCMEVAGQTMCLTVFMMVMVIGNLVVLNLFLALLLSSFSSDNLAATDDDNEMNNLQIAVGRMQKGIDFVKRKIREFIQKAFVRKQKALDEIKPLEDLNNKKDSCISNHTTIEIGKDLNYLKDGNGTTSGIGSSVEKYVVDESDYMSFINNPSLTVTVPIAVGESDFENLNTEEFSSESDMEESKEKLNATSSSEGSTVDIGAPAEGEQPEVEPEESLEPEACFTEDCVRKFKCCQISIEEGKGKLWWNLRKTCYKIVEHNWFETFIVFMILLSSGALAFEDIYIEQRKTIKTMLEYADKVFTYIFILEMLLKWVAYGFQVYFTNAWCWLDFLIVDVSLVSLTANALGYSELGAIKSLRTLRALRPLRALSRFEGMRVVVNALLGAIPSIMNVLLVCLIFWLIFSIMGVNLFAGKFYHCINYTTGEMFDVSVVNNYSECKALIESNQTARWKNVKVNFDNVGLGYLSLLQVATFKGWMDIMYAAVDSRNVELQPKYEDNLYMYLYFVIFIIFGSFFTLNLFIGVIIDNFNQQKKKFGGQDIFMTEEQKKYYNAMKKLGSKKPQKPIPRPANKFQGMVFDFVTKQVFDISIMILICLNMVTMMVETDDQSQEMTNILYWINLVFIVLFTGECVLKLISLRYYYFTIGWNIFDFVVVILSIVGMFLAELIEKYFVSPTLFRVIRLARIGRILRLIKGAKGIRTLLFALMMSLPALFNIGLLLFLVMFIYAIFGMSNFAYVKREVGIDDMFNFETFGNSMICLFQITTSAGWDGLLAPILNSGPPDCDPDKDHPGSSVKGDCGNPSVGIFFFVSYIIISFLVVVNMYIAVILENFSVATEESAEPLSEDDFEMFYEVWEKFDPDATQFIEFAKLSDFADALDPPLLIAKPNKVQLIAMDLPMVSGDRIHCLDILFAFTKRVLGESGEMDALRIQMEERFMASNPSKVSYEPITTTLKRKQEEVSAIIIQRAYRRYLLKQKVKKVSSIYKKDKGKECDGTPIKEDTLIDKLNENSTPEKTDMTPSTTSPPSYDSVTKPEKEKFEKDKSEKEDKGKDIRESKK

Chain of Nav1.5 (Q14524 whole entry): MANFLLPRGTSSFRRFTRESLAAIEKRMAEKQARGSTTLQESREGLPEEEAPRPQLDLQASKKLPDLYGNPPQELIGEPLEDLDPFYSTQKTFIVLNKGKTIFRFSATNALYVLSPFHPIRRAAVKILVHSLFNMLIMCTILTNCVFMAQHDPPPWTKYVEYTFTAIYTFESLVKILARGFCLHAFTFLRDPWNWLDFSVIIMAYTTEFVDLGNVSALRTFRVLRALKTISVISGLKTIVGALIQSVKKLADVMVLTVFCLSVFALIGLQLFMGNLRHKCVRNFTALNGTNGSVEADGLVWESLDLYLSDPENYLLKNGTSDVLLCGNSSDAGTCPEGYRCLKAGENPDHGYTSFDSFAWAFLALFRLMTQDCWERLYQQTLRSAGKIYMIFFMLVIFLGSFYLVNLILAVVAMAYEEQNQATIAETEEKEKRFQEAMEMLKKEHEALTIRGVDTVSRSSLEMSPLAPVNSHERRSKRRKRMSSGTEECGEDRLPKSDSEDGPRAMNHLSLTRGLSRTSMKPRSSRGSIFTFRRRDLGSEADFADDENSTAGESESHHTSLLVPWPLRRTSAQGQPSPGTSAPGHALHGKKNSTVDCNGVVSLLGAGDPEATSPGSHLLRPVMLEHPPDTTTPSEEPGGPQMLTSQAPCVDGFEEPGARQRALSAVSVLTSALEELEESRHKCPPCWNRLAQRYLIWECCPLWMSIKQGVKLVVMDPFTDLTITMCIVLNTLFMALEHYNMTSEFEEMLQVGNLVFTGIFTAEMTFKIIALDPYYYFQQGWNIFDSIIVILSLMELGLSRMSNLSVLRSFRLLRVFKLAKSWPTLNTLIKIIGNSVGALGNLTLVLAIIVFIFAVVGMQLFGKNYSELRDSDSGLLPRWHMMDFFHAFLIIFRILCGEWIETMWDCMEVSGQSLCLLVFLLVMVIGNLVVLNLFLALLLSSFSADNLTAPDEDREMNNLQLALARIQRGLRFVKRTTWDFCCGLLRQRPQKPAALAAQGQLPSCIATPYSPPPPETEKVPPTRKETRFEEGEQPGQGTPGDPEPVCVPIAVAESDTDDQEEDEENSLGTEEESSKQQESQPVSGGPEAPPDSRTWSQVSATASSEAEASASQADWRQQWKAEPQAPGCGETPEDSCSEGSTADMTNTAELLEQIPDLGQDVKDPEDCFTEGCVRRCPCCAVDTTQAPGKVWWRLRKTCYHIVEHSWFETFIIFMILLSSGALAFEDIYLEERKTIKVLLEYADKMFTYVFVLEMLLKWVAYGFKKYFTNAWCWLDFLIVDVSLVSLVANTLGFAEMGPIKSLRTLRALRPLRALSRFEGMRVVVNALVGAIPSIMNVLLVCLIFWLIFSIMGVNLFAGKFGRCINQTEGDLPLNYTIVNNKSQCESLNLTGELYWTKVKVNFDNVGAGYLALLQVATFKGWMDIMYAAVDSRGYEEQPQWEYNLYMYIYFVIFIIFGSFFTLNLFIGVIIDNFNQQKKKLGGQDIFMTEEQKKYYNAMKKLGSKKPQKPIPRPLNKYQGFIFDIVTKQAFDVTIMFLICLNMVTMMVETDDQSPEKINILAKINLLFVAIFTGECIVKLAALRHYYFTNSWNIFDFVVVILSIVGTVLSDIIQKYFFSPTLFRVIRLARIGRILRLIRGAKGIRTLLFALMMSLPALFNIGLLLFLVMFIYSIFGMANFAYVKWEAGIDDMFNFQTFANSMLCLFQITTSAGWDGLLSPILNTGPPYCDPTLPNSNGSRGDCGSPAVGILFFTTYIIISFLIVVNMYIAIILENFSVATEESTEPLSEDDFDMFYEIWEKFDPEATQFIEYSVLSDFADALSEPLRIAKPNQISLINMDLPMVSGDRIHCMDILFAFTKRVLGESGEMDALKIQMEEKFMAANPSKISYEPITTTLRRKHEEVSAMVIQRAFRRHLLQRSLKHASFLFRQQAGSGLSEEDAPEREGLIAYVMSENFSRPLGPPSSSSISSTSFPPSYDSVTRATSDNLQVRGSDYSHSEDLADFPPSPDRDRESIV

## CCCCNS(=O)(=O)c1ccc(OC)c(-c2nnc3c4ccccc4c(C)nn23)c1 [Lu AE98134]
Nav1.1
  concentration from which the total area under the curve for the duration of the depolarizing pulse is increased: ≥ 1 µM
Nav1.5
  selectivity against Nav1.5: low selectivity
Nav1.2
  selectivity against Nav1.2: moderate selectivity
